The source of these data is PubChem BioAssay (NCI).

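Cultured in 96-well plates, cells were exposed to test compound for 48 hours across five concentrations. Here, GI50 denotes the concentration required for 50% inhibition of growth. TGI denotes the concentration required for complete inhibition of growth.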

Some test systems named below: BT-549 breast; CCRF-CEM leukemia; COLO 205 colon; DU-145 prostate; HCC-2998 colon; MOLT-4 leukemia; OVCAR-8 ovarian; RPMI-8226 leukemia; SF-295 CNS; EKVX NSCLC.
Holding throughout (assay): NCI anticancer screen, dose series, 48 h

Regarding `Nc1c(C(=O)Nc2ccccc2)sc2nc3c(cc12)CN(Cc1ccccc1)CC3`, the GI50 in the test with BT-549 breast is 16.8 µM; with CCRF-CEM leukemia, 50.3 µM; with COLO 205 colon it was 24 µM; in the test on DU-145 prostate it was 14.8 µM; in the test on HCC-2998 colon, 76.1 µM; in the test with MOLT-4 leukemia, 31.3 µM. For the same compound, the GI50 was 16.8 µM in the test with OVCAR-8 ovarian, 55.8 µM in the test on RPMI-8226 leukemia and 5.45 µM in the test with SF-295 CNS. Further, the TGI with BT-549 breast is 92.3 µM; in the test with CCRF-CEM leukemia, above 100 µM; with COLO 205 colon, above 100 µM; in the test with DU-145 prostate, above 100 µM; in the test with HCC-2998 colon it was above 100 µM; in the test with MOLT-4 leukemia it was above 100 µM. For the same compound, the TGI in the test on OVCAR-8 ovarian, with RPMI-8226 leukemia and in the test on SF-295 CNS was above 100 µM each time.
Consider `CN(C(=O)c1ccncc1)c1ccccc1`, for which the TGI with BT-549 breast, with COLO 205 colon, with DU-145 prostate, in the test on EKVX NSCLC, in the test on HCC-2998 colon and with MOLT-4 leukemia was above 100 µM throughout. Also, the TGI in the test on OVCAR-8 ovarian, in the test with RPMI-8226 leukemia and in the test with SF-295 CNS was above 100 µM each time.
Turning to `CC(=O)O[C@H]1CC[C@@]2(C)[C@@H](CC[C@@H]3[C@@H]2CC[C@]2(C)C=C(C=O)C[C@@H]32)C1`, the GI50 with BT-549 breast was 12.1 µM; in the test with CCRF-CEM leukemia, 2.48 µM; with COLO 205 colon, 19 µM; with DU-145 prostate it was 4.75 µM; in the test on MOLT-4 leukemia it was 2.61 µM; in the test on OVCAR-8 ovarian, 2.96 µM. Besides, the GI50 in the test with RPMI-8226 leukemia was 2.74 µM; in the test on SF-295 CNS, 17.4 µM. In addition, the TGI is 32.3 µM in the test on BT-549 breast; 6.75 µM with CCRF-CEM leukemia; 39.2 µM in the test with COLO 205 colon; 15.9 µM in the test on DU-145 prostate; 7.33 µM in the test on MOLT-4 leukemia; 9.59 µM in the test with OVCAR-8 ovarian. Besides, the TGI in the test on RPMI-8226 leukemia was found to be 8.16 µM; with SF-295 CNS, 36 µM.
For `CCCCNC(=O)NS(=O)(=O)c1ccc(N2N=C(c3cc(C)ccc3C)CC2c2cc(OC)c(OC)c(OC)c2)cc1` (centres undefined), the GI50 is 2.73 µM in the test on BT-549 breast; 2.2 µM with CCRF-CEM leukemia; 2.6 µM in the test with COLO 205 colon; 3.46 µM in the test on DU-145 prostate; 2.32 µM in the test on HCC-2998 colon; 2.74 µM with MOLT-4 leukemia. Also, the figures for the GI50 in the test on OVCAR-8 ovarian and in the test with RPMI-8226 leukemia were 3.03 µM and 1.95 µM, respectively. In addition, the TGI in the test with BT-549 breast turned out to be 9.28 µM; with CCRF-CEM leukemia, 6.12 µM; with COLO 205 colon it was 5.19 µM; in the test with DU-145 prostate it was 11.1 µM; with HCC-2998 colon, 4.84 µM; in the test on MOLT-4 leukemia, 8.89 µM. Also, the TGI with OVCAR-8 ovarian came out at 10.5 µM; in the test with RPMI-8226 leukemia it was 5.49 µM.
Turning to `O=C(COc1cccc(/C=C2\COc3ccc(Cl)cc3C2=O)c1)c1ccc(Cl)cc1`, the GI50 is 4.72 µM in the test on CCRF-CEM leukemia; 15 µM in the test with COLO 205 colon; 14.7 µM in the test on DU-145 prostate; 12.5 µM in the test with EKVX NSCLC; 3.71 µM in the test on HCC-2998 colon; 5.95 µM in the test on MOLT-4 leukemia. In addition, the GI50 in the test with OVCAR-8 ovarian is 15.8 µM; with RPMI-8226 leukemia it was 2 µM; in the test with SF-295 CNS, 24.9 µM. Moreover, the TGI in the test with CCRF-CEM leukemia came to 49 µM; in the test with COLO 205 colon it was 29.8 µM; in the test on DU-145 prostate it was 27.8 µM; in the test with EKVX NSCLC, 25.8 µM; in the test on HCC-2998 colon, 15.1 µM; with MOLT-4 leukemia, 24.3 µM. Further, the TGI in the test on OVCAR-8 ovarian is 37.5 µM; in the test on RPMI-8226 leukemia, 5.14 µM; in the test with SF-295 CNS it was 39.6 µM.
Regarding `COC(=O)C1=C(OC(=O)c2ccc(Cl)cc2)C(C(=O)OC)[C@@]2(O)[C@@H](C(=O)OC)C(c3ccccc3Cl)C[C@@H]1[C@@H]2C(=O)OC` (some centres undefined), the GI50 in the test with BT-549 breast was 5.47 µM; with CCRF-CEM leukemia, 4.3 µM; in the test with COLO 205 colon it was 23.3 µM; with DU-145 prostate, 7.46 µM; with EKVX NSCLC it was 6.17 µM; in the test with HCC-2998 colon it was 14.3 µM. The GI50 with MOLT-4 leukemia was 3.54 µM; with OVCAR-8 ovarian it was 2.61 µM; in the test with RPMI-8226 leukemia, 8.79 µM. Further, the TGI with BT-549 breast, in the test on CCRF-CEM leukemia, with COLO 205 colon, in the test on DU-145 prostate, in the test with EKVX NSCLC and in the test with HCC-2998 colon was above 100 µM in each case. In addition, the TGI in the test with MOLT-4 leukemia is 34.6 µM; in the test on OVCAR-8 ovarian, 12.8 µM; with RPMI-8226 leukemia, above 100 µM.
Consider `CC1(C)CC[C@]2(C(=O)N3CCOCC3)CC[C@]3(C)C(=CC[C@@H]4[C@@]5(C)C/C(=C/c6ccncc6)C(=O)C(C)(C)[C@@H]5CC[C@]43C)[C@@H]2C1`, for which the GI50 in the test on BT-549 breast was 1.39 µM; in the test with CCRF-CEM leukemia, 0.871 µM; in the test on DU-145 prostate, 2.77 µM; with EKVX NSCLC, 2.87 µM; with HCC-2998 colon, 1.66 µM; with MOLT-4 leukemia, 0.787 µM. In addition, the figures for the GI50 with OVCAR-8 ovarian, in the test with RPMI-8226 leukemia and in the test on SF-295 CNS were 3.52 µM, 0.476 µM and 2.03 µM, respectively. The TGI is 10 µM in the test with BT-549 breast; above 100 µM in the test with CCRF-CEM leukemia; 36.5 µM in the test with DU-145 prostate; above 100 µM in the test with EKVX NSCLC; 7.82 µM with HCC-2998 colon; above 100 µM with MOLT-4 leukemia. The values for the TGI in the test with OVCAR-8 ovarian, in the test on RPMI-8226 leukemia and in the test with SF-295 CNS were above 100 µM, 3.36 µM and 34.8 µM, respectively.
As to `CCOc1ccccc1/C=N\N=C(\N)N/N=C/c1ccccc1OCC`, the GI50 with BT-549 breast is 5.08 µM; in the test on CCRF-CEM leukemia, 3.06 µM; in the test with DU-145 prostate, 2.84 µM; in the test on EKVX NSCLC, 4.59 µM; in the test on MOLT-4 leukemia, 3.33 µM; in the test with OVCAR-8 ovarian, 3.76 µM. Also, the results for the GI50 in the test with RPMI-8226 leukemia and with SF-295 CNS were 2.82 µM and 1.36 µM, respectively. For the same compound, the TGI in the test on BT-549 breast, in the test on CCRF-CEM leukemia, in the test on DU-145 prostate, in the test on EKVX NSCLC, with MOLT-4 leukemia and in the test with OVCAR-8 ovarian was above 100 µM throughout. The TGI in the test on RPMI-8226 leukemia and in the test on SF-295 CNS was above 100 µM throughout.
